Measurements: patent US8883681B2, “Sugarcane harvest aid” (FMC Corporation, priority 2004, dated 2014)

System: sugarcane, variety RB 81-5156 (plant-cane)
Assay: Evaluation of carfentrazone-ethyl as a sugarcane ripener (field trial, stems harvested 0-45 DAA; % POL, % BRIX, % PURITY)
Format: in vivo
Conditions: average of four replications
Description: The following example further illustrates the present invention, but, of course, should not be construed as in any way limiting its scope. The example includes a protocol for the evaluation of certain PPO-inhibiting compounds as ripeners on sugarcane crops, and sets forth certain data indicating the effectiveness of such compounds. Yield is measured in % POL, which is the percent saccharose content in the pressed broth or the cane. Purity and % BRIX (defined as total sugar content including glucose, fructose, saccharose and minerals) are also measures of crop yield, although the saccharose content is of primary concern.
The trial was performed on sugarcane, variety RB 81-5156 (plant-cane). The sugarcane was planted with spacing of 1.40 m between rows, using 30 kg/ha of N; 100 kg/ha of P2O5 and 80 gk/ha of K2O as basic fertilizers, complemented by a covering application of 30 kg/ha of N.
The application of ripeners was performed with pressurized back-pack sprayers, with flat fan nozzle 110.01. The flow was 65 l/ha and the pressure was 35 lb/in^2.
The experimental design used randomized plots with 6 treatments and 4 replications. The size of each experimental plot was 126 m^2 (6 spacing lines of 1.40 m per 15 m of length).
The climatic conditions at the time of the ripener applications were: average temperature of 27° C.; air relative humidity of 73%, wind speed of 4 km/hour.
One linear meter of stems was harvested in each experimental plot at 0 (zero), 15, 30 and 45 days after application (DAA) of the ripener. The sugar was extracted from these stems and submitted for GC and refractometer analysis of percent saccharose, glucose, fructose and minerals corresponding to % POL, % BRIX and % PURITY.
The results, shown as an average of four replications, were compared with results observed in the same trials with trinexapac-ethyl (Moddus).

CCOC(=O)C(Cl)Cc1cc(-n2nc(C)n(C(F)F)c2=O)c(F)cc1Cl (stereo not drawn) [Carfentrazone-ethyl, ethyl α,2-dichloro-5-[4-(difluoromethyl)-4,5-dihydro-3-methyl-5-oxo-1H-1,2,4-triazol-1-yl]-4-fluorobenzenepropanoate]
% BRIX in Pressed Broth of Sugarcane Crop after Application of Ripeners (30 g ai/ha, 0 DAA): 14.80% | % POL in Pressed Broth of Sugarcane Crop after Application of Ripeners (30 g ai/ha, 0 DAA): 11.90% | % POL in the Cane of Sugarcane Crop after Application of Ripeners (30 g ai/ha, 0 DAA): 10.38% | % PURITY in Pressed Broth of Sugarcane Crop after Application of Ripeners (30 g ai/ha, 0 DAA): 78.48% | % BRIX in Pressed Broth of Sugarcane Crop after Application of Ripeners (30 g ai/ha, 15 DAA): 15.40% | % POL in Pressed Broth of Sugarcane Crop after Application of Ripeners (30 g ai/ha, 15 DAA): 12.35% | % POL in the Cane of Sugarcane Crop after Application of Ripeners (30 g ai/ha, 15 DAA): 10.68% | % PURITY in Pressed Broth of Sugarcane Crop after Application of Ripeners (30 g ai/ha, 15 DAA): 79.10% | % BRIX in Pressed Broth of Sugarcane Crop after Application of Ripeners (30 g ai/ha, 30 DAA): 16.15% | % POL in Pressed Broth of Sugarcane Crop after Application of Ripeners (30 g ai/ha, 30 DAA): 12.75% | % POL in the Cane of Sugarcane Crop after Application of Ripeners (30 g ai/ha, 30 DAA): 10.75% | % PURITY in Pressed Broth of Sugarcane Crop after Application of Ripeners (30 g ai/ha, 30 DAA): 79.50% | % BRIX in Pressed Broth of Sugarcane Crop after Application of Ripeners (30 g ai/ha, 45 DAA): 16.40% | % POL in Pressed Broth of Sugarcane Crop after Application of Ripeners (30 g ai/ha, 45 DAA): 12.20% | % POL in the Cane of Sugarcane Crop after Application of Ripeners (30 g ai/ha, 45 DAA): 10.75% | % PURITY in Pressed Broth of Sugarcane Crop after Application of Ripeners (30 g ai/ha, 45 DAA): 79.35% | % BRIX in Pressed Broth of Sugarcane Crop after Application of Ripeners (40 g ai/ha, 0 DAA): 14.50% | % POL in Pressed Broth of Sugarcane Crop after Application of Ripeners (40 g ai/ha, 0 DAA): 12.55% | % POL in the Cane of Sugarcane Crop after Application of Ripeners (40 g ai/ha, 0 DAA): 10.38% | % PURITY in Pressed Broth of Sugarcane Crop after Application of Ripeners (40 g ai/ha, 0 DAA): 78.90% | % BRIX in Pressed Broth of Sugarcane Crop after Application of Ripeners (40 g ai/ha, 15 DAA): 15.50% | % POL in Pressed Broth of Sugarcane Crop after Application of Ripeners (40 g ai/ha, 15 DAA): 13.18% | % POL in the Cane of Sugarcane Crop after Application of Ripeners (40 g ai/ha, 15 DAA): 10.63% | % PURITY in Pressed Broth of Sugarcane Crop after Application of Ripeners (40 g ai/ha, 15 DAA): 80.28% | % BRIX in Pressed Broth of Sugarcane Crop after Application of Ripeners (40 g ai/ha, 30 DAA): 16.98% | % POL in Pressed Broth of Sugarcane Crop after Application of Ripeners (40 g ai/ha, 30 DAA): 13.70% | % POL in the Cane of Sugarcane Crop after Application of Ripeners (40 g ai/ha, 30 DAA): 10.98% | % PURITY in Pressed Broth of Sugarcane Crop after Application of Ripeners (40 g ai/ha, 30 DAA): 81.20% | % BRIX in Pressed Broth of Sugarcane Crop after Application of Ripeners (40 g ai/ha, 45 DAA): 16.90% | % POL in Pressed Broth of Sugarcane Crop after Application of Ripeners (40 g ai/ha, 45 DAA): 13.58% | % POL in the Cane of Sugarcane Crop after Application of Ripeners (40 g ai/ha, 45 DAA): 11.00% | % PURITY in Pressed Broth of Sugarcane Crop after Application of Ripeners (40 g ai/ha, 45 DAA): 81.43% | % BRIX in Pressed Broth of Sugarcane Crop after Application of Ripeners (60 g ai/ha, 0 DAA): 14.60% | % POL in Pressed Broth of Sugarcane Crop after Application of Ripeners (60 g ai/ha, 0 DAA): 12.55% | % POL in the Cane of Sugarcane Crop after Application of Ripeners (60 g ai/ha, 0 DAA): 10.63% | % PURITY in Pressed Broth of Sugarcane Crop after Application of Ripeners (60 g ai/ha, 0 DAA): 79.35% | % BRIX in Pressed Broth of Sugarcane Crop after Application of Ripeners (60 g ai/ha, 15 DAA): 15.20% | % POL in Pressed Broth of Sugarcane Crop after Application of Ripeners (60 g ai/ha, 15 DAA): 13.58% | % POL in the Cane of Sugarcane Crop after Application of Ripeners (60 g ai/ha, 15 DAA): 11.38% | % PURITY in Pressed Broth of Sugarcane Crop after Application of Ripeners (60 g ai/ha, 15 DAA): 81.85% | % BRIX in Pressed Broth of Sugarcane Crop after Application of Ripeners (60 g ai/ha, 30 DAA): 17.75% | % POL in Pressed Broth of Sugarcane Crop after Application of Ripeners (60 g ai/ha, 30 DAA): 14.50% | % POL in the Cane of Sugarcane Crop after Application of Ripeners (60 g ai/ha, 30 DAA): 12.45% | % PURITY in Pressed Broth of Sugarcane Crop after Application of Ripeners (60 g ai/ha, 30 DAA): 83.15% | % BRIX in Pressed Broth of Sugarcane Crop after Application of Ripeners (60 g ai/ha, 45 DAA): 17.45% | % POL in Pressed Broth of Sugarcane Crop after Application of Ripeners (60 g ai/ha, 45 DAA): 14.35% | % POL in the Cane of Sugarcane Crop after Application of Ripeners (60 g ai/ha, 45 DAA): 12.38% | % PURITY in Pressed Broth of Sugarcane Crop after Application of Ripeners (60 g ai/ha, 45 DAA): 83.15% | % BRIX in Pressed Broth of Sugarcane Crop after Application of Ripeners (80 g ai/ha, 0 DAA): 14.50% | % POL in Pressed Broth of Sugarcane Crop after Application of Ripeners (80 g ai/ha, 0 DAA): 12.45% | % POL in the Cane of Sugarcane Crop after Application of Ripeners (80 g ai/ha, 0 DAA): 10.80% | % PURITY in Pressed Broth of Sugarcane Crop after Application of Ripeners (80 g ai/ha, 0 DAA): 80.05% | % BRIX in Pressed Broth of Sugarcane Crop after Application of Ripeners (80 g ai/ha, 15 DAA): 15.80% | % POL in Pressed Broth of Sugarcane Crop after Application of Ripeners (80 g ai/ha, 15 DAA): 14.08% | % POL in the Cane of Sugarcane Crop after Application of Ripeners (80 g ai/ha, 15 DAA): 11.93% | % PURITY in Pressed Broth of Sugarcane Crop after Application of Ripeners (80 g ai/ha, 15 DAA): 82.90% | % BRIX in Pressed Broth of Sugarcane Crop after Application of Ripeners (80 g ai/ha, 30 DAA): 17.90% | % POL in Pressed Broth of Sugarcane Crop after Application of Ripeners (80 g ai/ha, 30 DAA): 15.05% | % POL in the Cane of Sugarcane Crop after Application of Ripeners (80 g ai/ha, 30 DAA): 13.25% | % PURITY in Pressed Broth of Sugarcane Crop after Application of Ripeners (80 g ai/ha, 30 DAA): 84.45% | % BRIX in Pressed Broth of Sugarcane Crop after Application of Ripeners (80 g ai/ha, 45 DAA): 17.80% | % POL in Pressed Broth of Sugarcane Crop after Application of Ripeners (80 g ai/ha, 45 DAA): 15.30% | % POL in the Cane of Sugarcane Crop after Application of Ripeners (80 g ai/ha, 45 DAA): 13.35% | % PURITY in Pressed Broth of Sugarcane Crop after Application of Ripeners (80 g ai/ha, 45 DAA): 84.05% | % BRIX in Pressed Broth of Sugarcane Crop after Application of Ripeners (100 g ai/ha, 0 DAA): 14.90% | % POL in Pressed Broth of Sugarcane Crop after Application of Ripeners (100 g ai/ha, 0 DAA): 12.50% | % POL in the Cane of Sugarcane Crop after Application of Ripeners (100 g ai/ha, 0 DAA): 10.98% | % PURITY in Pressed Broth of Sugarcane Crop after Application of Ripeners (100 g ai/ha, 0 DAA): 81.85% | % BRIX in Pressed Broth of Sugarcane Crop after Application of Ripeners (100 g ai/ha, 15 DAA): 15.30% | % POL in Pressed Broth of Sugarcane Crop after Application of Ripeners (100 g ai/ha, 15 DAA): 14.70% | % POL in the Cane of Sugarcane Crop after Application of Ripeners (100 g ai/ha, 15 DAA): 12.25% | % PURITY in Pressed Broth of Sugarcane Crop after Application of Ripeners (100 g ai/ha, 15 DAA): 83.78% | % BRIX in Pressed Broth of Sugarcane Crop after Application of Ripeners (100 g ai/ha, 30 DAA): 18.25% | % POL in Pressed Broth of Sugarcane Crop after Application of Ripeners (100 g ai/ha, 30 DAA): 15.90% | % POL in the Cane of Sugarcane Crop after Application of Ripeners (100 g ai/ha, 30 DAA): 13.83% | % PURITY in Pressed Broth of Sugarcane Crop after Application of Ripeners (100 g ai/ha, 30 DAA): 86.05% | % BRIX in Pressed Broth of Sugarcane Crop after Application of Ripeners (100 g ai/ha, 45 DAA): 18.60% | % POL in Pressed Broth of Sugarcane Crop after Application of Ripeners (100 g ai/ha, 45 DAA): 15.75% | % POL in the Cane of Sugarcane Crop after Application of Ripeners (100 g ai/ha, 45 DAA): 13.43% | % PURITY in Pressed Broth of Sugarcane Crop after Application of Ripeners (100 g ai/ha, 45 DAA): 83.38%

CCOC(=O)C1CC(=O)C(=C(O)C2CC2)C(=O)C1 (stereo not drawn) [trinexapac-ethyl, reference compound]
% BRIX in Pressed Broth of Sugarcane Crop after Application of Ripeners (250 g ai/ha, 0 DAA): 14.93% | % POL in Pressed Broth of Sugarcane Crop after Application of Ripeners (250 g ai/ha, 0 DAA): 12.75% | % POL in the Cane of Sugarcane Crop after Application of Ripeners (250 g ai/ha, 0 DAA): 11.35% | % PURITY in Pressed Broth of Sugarcane Crop after Application of Ripeners (250 g ai/ha, 0 DAA): 81.53% | % BRIX in Pressed Broth of Sugarcane Crop after Application of Ripeners (250 g ai/ha, 15 DAA): 15.15% | % POL in Pressed Broth of Sugarcane Crop after Application of Ripeners (250 g ai/ha, 15 DAA): 14.25% | % POL in the Cane of Sugarcane Crop after Application of Ripeners (250 g ai/ha, 15 DAA): 12.53% | % PURITY in Pressed Broth of Sugarcane Crop after Application of Ripeners (250 g ai/ha, 15 DAA): 83.73% | % BRIX in Pressed Broth of Sugarcane Crop after Application of Ripeners (250 g ai/ha, 30 DAA): 17.85% | % POL in Pressed Broth of Sugarcane Crop after Application of Ripeners (250 g ai/ha, 30 DAA): 15.80% | % POL in the Cane of Sugarcane Crop after Application of Ripeners (250 g ai/ha, 30 DAA): 13.45% | % PURITY in Pressed Broth of Sugarcane Crop after Application of Ripeners (250 g ai/ha, 30 DAA): 85.15% | % BRIX in Pressed Broth of Sugarcane Crop after Application of Ripeners (250 g ai/ha, 45 DAA): 18.45% | % POL in Pressed Broth of Sugarcane Crop after Application of Ripeners (250 g ai/ha, 45 DAA): 15.75% | % POL in the Cane of Sugarcane Crop after Application of Ripeners (250 g ai/ha, 45 DAA): 14.20% | % PURITY in Pressed Broth of Sugarcane Crop after Application of Ripeners (250 g ai/ha, 45 DAA): 84.78%
